Where “and” joins values, the source holds several entries; their conditions need not be identical. Equal values may be shown once. Read-outs that look alike come from different tables or passages of the source.
Columns and labels:
[1] = tested on: full-length RRE–Rev complex; assay: EMSA of full-length RRE–Rev complex formation inhibition; format: biochemical, HIV-1; details: low-order RRE–Rev complex EMSA bands; 70 nM RRE, 0.75 µM Rev; 95% CI and R2 in parentheses
Protocol: These assays were used to monitor full-length RRE–Rev inhibition and involved the viral protein Rev and a 234 nt RRE sequence (Figure 1), obtained as reported previously. RRE was prepared in native conditions using a procedure based on electrophoresis. The reactions used 70 nM RRE and 0.75 μM Rev dissolved in an aqueous solution containing 10 mM HEPES, pH 7.5, 300 mM KCl, 1 mM MgCl2 and 0.5 mM EDTA, and the samples were loaded onto 8% polyacrylamide gels with TB running buffer. Gels were run at 4 °C for 3 h at 150 V, and the bands were stained with SYBR Gold and quantified with ImageJ software. In all cases, we monitored the disappearance of the bands corresponding to low-order RRE–Rev complexes (Figure 4A) using a sigmoidal inhibitory model and GraphPad Prism. At least three independent experiments were conducted for each compound.

HIV-1NL4-3-Ren [2] = assay: Anti-HIV activity in MT-2 cells infected with HIV-1NL4-3-Ren (Renilla luciferase); format: cell-based; details: for EC50: Human immunodeficiency virus 1, MT2, 48 h
Protocol: (§1) The methodology used to perform these experiments in MT-2 cell culture was reported previously. Infectious HIV-1NL4-3-Ren supernatants were obtained from transfection in 293T cells with plasmid pNL4-3-Ren, where a Renilla luciferase reporter gene replaces the nef gene of the wild-type pNL4-3 HIV-1 clone, which includes LTR promoters. MT-2 cells were infected with these supernatants (100,000 RLUs/well) in the presence of the compounds, and anti-HIV activity was quantified 48 h post-infection by determining Renilla luciferase activity in cell lysates compared to a non-treated control (100%), following the manufacturer’s instructions (Renilla Assay System, Promega). Briefly, 100 µL of Renilla Assay System buffer was added to obtain cell lysates, and 35 µL of these lysates was then transferred to a white 96-well microplate. RLUs were recorded after injecting 35 µL of Renilla substrate (10 s reading) using a luminometer (Berthold Detection Systems). Cellular viability was evaluated in mock-infected cells similarly treated with the same concentrations of compounds using the CellTiter-Glo assay (Promega). To assess the antiretroviral activity of benfluron in human primary cells, PBMCs were isolated from healthy donors via Ficoll density gradient centrifugation and subsequently cultured in a PHA (1 µg/mL) and IL-2 (100 U/mL)-enriched medium for 48 h at 37 °C. Activated PBMCs were infected with HIV-1NL4-3 [20] at a multiplicity of infection of 0.001 and cultured in the presence of serial dilutions (5 nM–100 µM) of benfluron. Three days post-infection, the supernatant was collected, and the HIV-inhibitory effect of the drug was measured using the Alliance HIV-1 p24 Antigen Elisa Kit (Perkin Elmer). The toxicity of the compound in PBMCs was evaluated as explained above for MT-2 cells. In both experiments, the potential background toxicity and antiviral effect of the DMSO vehicle used to solubilize the molecule were determined in parallel. In all cases, EC50 and CC50 values were calculated with GraphPad Prism using log(inhibitor) vs. response non-linear curve fitting. All cellular assays were performed in triplicate.

in vitro = format: cell-based; details: human
Protocol: as §1

RRE subdomain IIB = assay: Fluorescence binding to fluorescein-labeled (U23) RRE subdomain IIB RNA hairpin; design: species or system HIV-1; details: RRE IIB hairpin labeled with fluorescein at U23; 100 nM RNA, pH 6.6; 95% CI and R2 in parentheses
Protocol: These experiments measured compound association to an RRE subdomain IIB RNA oligonucleotide labeled with fluorescein at extrahelical loop nucleotide U23 (Figure 1) and were carried out in a Spectramax iD5 microplate reader (Molecular Devices) using 100 nM RNA dissolved in 10 mM sodium phosphate, pH 6.6, and 0.1 mM EDTA, as described before. The equilibrium dissociation constants, Kd, were determined by fitting the fluorescence intensity curves to a two-state binding model with GraphPad Prism software. […] All fluorescence experiments were carried out at least three times for each compound.

HIV-1NL4-3-Ren [3] = tested on: HIV-1NL4-3-Ren; design: method as in PMID 30071201; details: MT-2 cells, HIV-1 infection; cited from earlier work
MT-2 cells = tested on: MT-2 cells; design: method as in PMID 30071201; details: cited from earlier work
HIV-1NL4-3 = assay: Antiretroviral activity in activated PBMCs infected with HIV-1NL4-3 (p24 ELISA); format: cell-based
Protocol: as §1, with “Briefly, 100 µL of Renilla Assay System buffer was added to obtain cell lysates, and 35 µL of these lysates was then transferred to a white 96-well microplate.” left out, “To assess the antiretroviral activity of benfluron in human primary cells, PBMCs were isolated from healthy donors via Ficoll density gradient centrifugation and subsequently cultured in a PHA (1 µg/mL) and IL-2 (100 U/mL)-enriched medium for 48 h at 37 °C. Activated PBMCs were infected with HIV-1NL4-3 [20] at a multiplicity of infection of 0.001 and cultured in the presence of serial dilutions (5 nM–100 µM) of benfluron.” left out, “In all cases, EC50 and CC50 values were calculated with GraphPad Prism using log(inhibitor) vs. response non-linear curve fitting. All cellular assays were performed in triplicate.” left out

PBMCs = assay: in vitro; format: cell-based; details: human
Protocol: as §1

CN(C)CCOc1ccc2c(c1)C(=O)c1ccccc1-2 [Compound 1]
IC50 [1]: > 50 µM
EC50 (HIV-1NL4-3-Ren [2]): > 100 µM
CC50 at 48 h (in vitro; CC50): > 100 µM
Kd (RRE subdomain IIB): 45.6 µM

CN(C)CCOc1cccc(C(=O)c2ccccc2)c1 [Compound 2]
IC50 [1]: > 50 µM
EC50 (HIV-1NL4-3-Ren [2]): ~100 µM
CC50 at 48 h (in vitro; CC50): ~100 µM
Kd (RRE subdomain IIB): > 100 µM

CN(C)CCOc1ccc2c(c1)Cc1ccccc1-2 [Compound 3]
IC50 [1]: > 50 µM
EC50 (HIV-1NL4-3-Ren [2]): ~100 µM
CC50 at 48 h (in vitro; CC50): ~100 µM
Kd (RRE subdomain IIB): 106 µM

CN(C)CCOc1ccc(-c2ccccc2)c2ccccc12 [Compound 4]
IC50 [1]: > 50 µM
EC50 (HIV-1NL4-3-Ren [2]): 17 µM
CC50 at 48 h (in vitro; CC50): 28.7 µM
Kd (RRE subdomain IIB): 77.5 µM

CN(C)CCOc1cc(C(=O)c2ccccc2)cc2ccccc12 [Compound 5]
IC50 [1]: ~29 µM and 29 µM
EC50 (HIV-1NL4-3-Ren [2]): 19.4 µM
selectivity index (SI; CC50/EC50) (HIV-1NL4-3-Ren [2]; MT-2 cells): 2.6
CC50 at 48 h (in vitro; CC50): 49.7 µM
Kd (RRE subdomain IIB): 95.1 µM

CN1CCN(CCOc2cc(C(=O)c3ccccc3)cc3ccccc23)CC1 [Compound 6]
IC50 [1]: ~45 µM and 45 µM
EC50 (HIV-1NL4-3-Ren [2]): 24.2 µM
CC50 at 48 h (in vitro; CC50): 20 to 100 µM
CC50 at 48 h (in vitro; MT-2 cells, mock-infected, 95% CI and R2 in parentheses, read-out: CC50): 20 to 49.7 µM
Kd (RRE subdomain IIB): 34 µM

CN(C)CCOc1cc2c(c3ccccc13)-c1ccccc1C2=O [benfluron]
IC50 [1]: 5 µM
EC50 (HIV-1NL4-3-Ren [3]): 0.83 µM
CC50 (MT-2 cells): 28.1 µM
selectivity index (SI; CC50/EC50) (HIV-1NL4-3): 1.3
EC50 (HIV-1NL4-3; Human immunodeficiency virus 1, PBMC, 72 h, HIV-1NL4-3, three days post-infection, p24, read-out: antiviral EC50): 5.5 µM
CC50 (PBMCs): 7.09 µM
CC50 (in vitro; cytotoxic CC50): 7.1 µM
Kd (RRE subdomain IIB): 4.83 µM

Reference: article PMC10609163, “Exploring the HIV-1 Rev Recognition Element (RRE)–Rev Inhibitory Capacity and Antiretroviral Action of Benfluron Analogs” (Molecules, 2023)
